Counter-ions that a name gives are not always drawn. Active and inactive are the calls of the source.

By IC50 is commonly meant the point on the concentration scale where inhibition reaches its midpoint. For orientation: EC50 means the concentration at which the effect is half-maximal. Usually AC50 stands for the concentration at which the activity in the assay is half-maximal.

Assay [1] has as its target Mitogen-activated protein kinase 10 (Homo sapiens, UniProt P53779). Nature of the assay: Dose response biochemical screening assay for inhibitors of c-Jun N-Terminal Kinase 3 (JNK3). [Related pubchem assays: 746 ].
Assay [2] addresses T1, Short transient receptor potential channel 4 (Mus musculus, UniProt Q9QUQ5).
T1 sequence (Q9QUQ5 whole entry): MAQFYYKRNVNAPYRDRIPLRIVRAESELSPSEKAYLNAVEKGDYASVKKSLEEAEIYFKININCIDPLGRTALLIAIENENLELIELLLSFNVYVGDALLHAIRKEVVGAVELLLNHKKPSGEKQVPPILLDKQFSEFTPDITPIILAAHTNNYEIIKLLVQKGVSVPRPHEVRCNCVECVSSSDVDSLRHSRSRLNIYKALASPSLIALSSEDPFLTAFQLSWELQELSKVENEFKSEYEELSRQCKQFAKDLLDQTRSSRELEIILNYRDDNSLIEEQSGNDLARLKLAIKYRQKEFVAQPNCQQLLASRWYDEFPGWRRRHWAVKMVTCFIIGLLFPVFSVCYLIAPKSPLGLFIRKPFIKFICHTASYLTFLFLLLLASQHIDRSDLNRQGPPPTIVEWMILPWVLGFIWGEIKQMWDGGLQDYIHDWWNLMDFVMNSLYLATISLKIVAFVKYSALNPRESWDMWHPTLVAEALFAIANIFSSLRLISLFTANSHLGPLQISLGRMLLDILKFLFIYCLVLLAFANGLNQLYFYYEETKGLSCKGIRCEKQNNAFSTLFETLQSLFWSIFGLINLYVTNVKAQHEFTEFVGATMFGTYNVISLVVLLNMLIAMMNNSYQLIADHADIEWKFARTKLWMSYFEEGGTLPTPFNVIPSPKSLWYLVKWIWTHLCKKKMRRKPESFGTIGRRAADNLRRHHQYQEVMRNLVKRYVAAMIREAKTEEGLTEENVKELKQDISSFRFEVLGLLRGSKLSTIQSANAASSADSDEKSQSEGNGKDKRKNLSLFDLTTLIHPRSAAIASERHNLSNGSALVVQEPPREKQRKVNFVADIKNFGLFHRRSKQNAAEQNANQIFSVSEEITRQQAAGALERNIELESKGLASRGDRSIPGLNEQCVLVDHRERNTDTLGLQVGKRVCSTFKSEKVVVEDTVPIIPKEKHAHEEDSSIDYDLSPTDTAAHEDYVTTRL
Nature of the assay: mouse TRPC4 channel activators, dose response, cell-based, HEK293 TRPC4/mu-opioid, Fluo-4 calcium (AID 434937). The assay is classed as functional.

Assay [3] deals with T1, Short transient receptor potential channel 4. The assay is described as follows: mouse TRPC4 channel inhibitors, dose response, cell-based, HEK293 TRPC4/mu-opioid, Fluo-4 calcium (AID 434942).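 Also: potency of inhibitors blocking the TRPC4 calcium response.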 The assay is classed as functional.
The target in assay [4] is Eukaryotic translation initiation factor 4E (Mus musculus, UniProt P63073). Nature of the assay: eIF4E–eIF4G protein interaction inhibitors, dose response, biochemical, TR-FRET (AID 855).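 Also: potency for disrupting eIF4E binding to eIF4GI seen as loss of FRET.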 The format is functional. Background: In TR-FRET formats the signal depends on donor and acceptor labels being close together.
Assay [5] can be described thus: inhibitors of intracellular T. cruzi replication, confirmation, NIH3T3 host cells, beta-gal luminescence (AID 2044).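 Also: intracellular parasites grown in NIH/3T3 mouse fibroblasts as host cells; luminescent beta-galactosidase reporter signal from transgenic T. cruzi replicating inside host cells; inhibitors lower the luminescence signal.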 The assay is classed as functional, cell-based.
Assay [6] can be described thus: cytotoxicity toward NIH3T3 fibroblasts, dose response, counter-screen, cell-based, ATP luminescence, mouse fibroblasts (AID 2010).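 Also: cells exposed to compound for about 90 hours before reading.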 The format is functional. (Counterscreens check selectivity or assay interference.)
Assay [7] relates to INS1. Nature of the assay: beta cell apoptosis inhibitors, cytokine rescue, dose response, luminescence, retest (AID 449756).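 Also: cell death triggered by IL-1 beta plus TNF-alpha plus IFN-gamma mixture; protective hits raise ATP signal compared with cytokine alone wells.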 To be noted: Rattus norvegicus. The format is functional, cell-based.
For assay [8], the target named is T2, DNA repair protein RAD52 homolog (Homo sapiens, UniProt P43351).
T2 sequence (P43351 whole entry): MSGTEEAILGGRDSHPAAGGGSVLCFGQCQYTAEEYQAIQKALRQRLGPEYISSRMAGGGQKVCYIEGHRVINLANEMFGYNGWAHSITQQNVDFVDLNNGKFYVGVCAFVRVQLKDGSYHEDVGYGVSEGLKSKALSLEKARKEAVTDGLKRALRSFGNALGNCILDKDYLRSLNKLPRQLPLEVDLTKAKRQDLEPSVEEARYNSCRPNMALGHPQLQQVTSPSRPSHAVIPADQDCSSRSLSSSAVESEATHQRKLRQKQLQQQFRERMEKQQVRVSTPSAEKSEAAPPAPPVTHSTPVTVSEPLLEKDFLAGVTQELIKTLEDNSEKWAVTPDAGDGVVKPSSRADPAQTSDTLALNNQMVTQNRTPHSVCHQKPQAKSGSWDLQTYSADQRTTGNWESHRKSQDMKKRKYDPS
The format is functional, biochemical.

Assay [9] is described as follows: cells. The assay is classed as functional, cell-based.
Assay [10] deals with T3, Trace amine-associated receptor 1 (Homo sapiens, UniProt Q96RJ0).
T3 sequence (Q96RJ0 whole entry): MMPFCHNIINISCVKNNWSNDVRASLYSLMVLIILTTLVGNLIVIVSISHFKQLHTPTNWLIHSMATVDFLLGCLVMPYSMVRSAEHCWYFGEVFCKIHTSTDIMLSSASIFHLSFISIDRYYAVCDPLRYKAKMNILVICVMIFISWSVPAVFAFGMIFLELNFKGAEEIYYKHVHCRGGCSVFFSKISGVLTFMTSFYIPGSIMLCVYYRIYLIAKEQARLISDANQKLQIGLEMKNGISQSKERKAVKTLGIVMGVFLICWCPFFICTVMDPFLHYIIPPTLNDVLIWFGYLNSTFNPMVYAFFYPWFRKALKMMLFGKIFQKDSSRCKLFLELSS
The assay is described as follows: Fluorescence-based cell-based high throughput dose response assay to identify agonists of the human trace amine associated receptor 1 (TAAR1). The assay is classed as functional.

The target in assay [11] is T3, Trace amine-associated receptor 1. Nature of the assay: Counterscreen for agonists of the human trace amine associated receptor 1 (hTAAR1): Fluorescence-based cell-based high throughput dose response assay to identify hTAAR1 agonist that also desensitize TAAR1 receptor response. The format is functional.
A short description of assay [12]: cells. The assay is classed as functional, cell-based. This is another data set of the same source.
The nature of assay [13]: inhibitors of HIV Env-driven cell fusion, dose response, cherry-pick (AID 652057). The format is functional, cell-based.
Assay [14] in a line: ZM109 Env clade C HIV-1 fusion inhibitors, dose response, HeLa effector, CEM target cells, luciferase, cherry-pick (AID 652058). The format is functional, cell-based.
The nature of assay [15]: inhibitors of clade B AD8 Env fusion, dose response, cell-based, cherry-pick (AID 652062).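 Also: luciferase signal from cell-cell fusion driven by HIV-1 clade B AD8 Env; potency is for inhibitors of fusion seen as a drop in luminescence.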 The format is functional.
Assay [16] can be described thus: A549 cell cytotoxicity, dose response, cytotoxicity control, plate reader, cherry-pick, antagonist series (AID 743412). The assay is classed as functional, cell-based.
For assay [17], the target named is Large T antigen (Simian virus 40, UniProt P03070). The assay is classed as functional, Betapolyomavirus macacae.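 Also: Confirmatory-stage PubChem screen for compounds that inhibit SV40 T antigen.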
The target in assay [18] is FAD-linked sulfhydryl oxidase ALR (Homo sapiens, UniProt P55789). Nature of the assay: inhibitors of human ALR sulfhydryl oxidase, dose response, biochemical, H2O2 detection, luminescence, cherry-pick (AID 493248).
FAD-linked sulfhydryl oxidase ALR, sequence (P55789 whole entry): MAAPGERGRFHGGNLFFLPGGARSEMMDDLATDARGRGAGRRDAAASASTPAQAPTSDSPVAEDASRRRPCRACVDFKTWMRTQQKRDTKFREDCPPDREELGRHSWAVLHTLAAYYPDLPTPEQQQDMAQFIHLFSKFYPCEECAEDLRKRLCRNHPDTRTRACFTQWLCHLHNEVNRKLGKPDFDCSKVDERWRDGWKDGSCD

Mitogen-activated protein kinase 10, sequence (P53779 whole entry): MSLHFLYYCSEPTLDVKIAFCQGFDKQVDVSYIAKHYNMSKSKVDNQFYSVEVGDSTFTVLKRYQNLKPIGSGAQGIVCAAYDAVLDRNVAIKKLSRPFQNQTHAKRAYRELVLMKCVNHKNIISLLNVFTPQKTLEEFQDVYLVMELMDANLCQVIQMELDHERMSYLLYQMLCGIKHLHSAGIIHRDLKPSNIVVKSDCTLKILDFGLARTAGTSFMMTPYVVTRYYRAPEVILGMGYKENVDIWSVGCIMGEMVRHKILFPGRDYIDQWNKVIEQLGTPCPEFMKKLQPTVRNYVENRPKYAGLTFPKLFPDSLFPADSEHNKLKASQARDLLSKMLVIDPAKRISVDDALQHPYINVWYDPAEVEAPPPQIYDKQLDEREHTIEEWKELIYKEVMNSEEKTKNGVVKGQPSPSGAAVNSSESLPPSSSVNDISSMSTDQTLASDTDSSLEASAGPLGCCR
Large T antigen, sequence (P03070 whole entry): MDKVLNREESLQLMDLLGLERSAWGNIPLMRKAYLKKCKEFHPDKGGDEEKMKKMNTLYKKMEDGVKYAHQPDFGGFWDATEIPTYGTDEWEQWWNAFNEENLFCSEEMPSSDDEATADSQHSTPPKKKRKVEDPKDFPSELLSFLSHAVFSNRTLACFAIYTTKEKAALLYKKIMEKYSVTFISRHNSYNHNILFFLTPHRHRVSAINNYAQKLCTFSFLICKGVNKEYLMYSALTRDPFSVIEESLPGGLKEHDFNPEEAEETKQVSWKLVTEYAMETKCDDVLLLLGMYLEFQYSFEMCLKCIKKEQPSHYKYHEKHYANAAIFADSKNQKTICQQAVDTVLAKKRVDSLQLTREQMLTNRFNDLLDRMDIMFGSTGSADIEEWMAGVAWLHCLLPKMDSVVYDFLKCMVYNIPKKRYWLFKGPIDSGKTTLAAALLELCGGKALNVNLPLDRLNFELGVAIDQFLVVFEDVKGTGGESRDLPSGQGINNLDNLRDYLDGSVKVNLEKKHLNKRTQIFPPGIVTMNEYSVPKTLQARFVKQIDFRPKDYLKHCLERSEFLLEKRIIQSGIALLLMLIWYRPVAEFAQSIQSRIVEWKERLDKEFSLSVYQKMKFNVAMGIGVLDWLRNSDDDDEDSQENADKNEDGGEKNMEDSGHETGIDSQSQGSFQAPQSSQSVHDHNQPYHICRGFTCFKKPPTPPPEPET
Eukaryotic translation initiation factor 4E, sequence (P63073 whole entry): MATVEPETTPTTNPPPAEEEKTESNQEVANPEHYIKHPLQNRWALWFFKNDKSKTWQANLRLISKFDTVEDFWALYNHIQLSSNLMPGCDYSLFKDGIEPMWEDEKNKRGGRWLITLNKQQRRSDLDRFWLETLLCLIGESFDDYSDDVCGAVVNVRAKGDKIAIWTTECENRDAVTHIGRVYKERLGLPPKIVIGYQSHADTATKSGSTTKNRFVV

Take `O=C(CCCn1c(=S)[nH]c2ccccc2c1=O)NCc1ccco1`: the IC50 in assay [1] is given as 49.2 µM (not active).
In the case of `CN(CCc1ccccn1)C1CC(=O)N(c2ccc(Cl)cc2)C1=O` (stereo not drawn), in assay [2], the EC50 was 2.11 µM (active).
Turning to `O=C(NC1CC1)C1=C[C@H](C2CCCCC2)C[C@H](OCc2ccc(CO)cc2)O1`, the EC50 in [3] is 5.31 µM (active); in [2], 4.22 µM (active).
For `O=C(O)CSc1nnc(COc2cccc3cccnc23)n1-c1cccc(C(F)(F)F)c1`, the IC50 in assay [4] is 50 µM (inactive).
Take `CCOC(=O)c1c(C)[nH]c2ccc(O)cc12`: the IC50 in assay [1] is > 93.1 µM (not active).
For `CCOC(=O)c1c(NC(=O)C[n+]2ccc(Cc3ccccc3)cc2)sc(C)c1C`, the 50% effective concentration (EC50) in assay [5] was 1.83 µM (active); in assay [6] it was > 60 µM (not active). The AC50 in assay [7] is 5.35 µM (active); in [8] it was 20.5 µM (active).
Turning to `N#CCCSc1ncnc2c1oc1ccccc12`, the half-maximal inhibitory concentration (IC50) in assay [1] is on record as 27.7 µM (not active).
As for `CN1CCN(CCCC(=O)c2ccc(C3CCCC3)cc2)CC1`, in assay [8], the half-maximal activity concentration (AC50) is 19.7 µM (active).
Take `Cn1nnnc1SCc1ccc(C(=O)Nc2nccs2)cc1`: the IC50 in [1] is 56.9 µM (not active).
Take `COc1ccc(C(CNC(=O)c2cc(SC)ccc2Cl)N(C)C)cc1` (stereo not drawn): the EC50 in [2] was 0.944 µM (active).
In the case of `O=C(O)C1C2C=CC(C2)C1C(=O)NCCC1=CCCCC1` (stereo not drawn), the IC50 in assay [9] and in assay [11] was > 29.9 µM (inactive) each time. The EC50 is 0.916 µM (active) in assay [10] and > 29.9 µM (inactive) in assay [12].
Regarding `CCOC(=O)[C@]12CCCC=C1N(CCC1=CCCCC1)C(=O)[C@H](CC(=O)NCCc1ccccc1OC)C2`, the IC50 in assay [9] was 26.9 µM (inactive); in assay [11], 5.92 µM (active). Further, the EC50 is 3.59 µM (active) in assay [10] and > 29.9 µM (inactive) in assay [12].
Taken in the same sequence, the figures for `O=C(NCCc1ccc(O)cc1)c1[nH]c(C(F)(F)F)nc1-c1ccccc1` were > 29.9 µM (inactive), 5.53 µM (active), 0.485 µM (active) and > 29.9 µM (inactive).
`C[C@@H]1CN([C@@H](C)CO)C(=O)c2ccccc2-c2ccccc2CO[C@@H]1CN(C)C(=O)Nc1ccc2c(c1)OCO2`: the AC50 in assay [13] was 0.318 µM (active); in assay [14], 0.54 µM (active); in assay [15] it was 1.6 µM (active).
For `COCC(=O)N[C@@H]1CC[C@@H](CC(=O)NCc2ccccc2OC)O[C@@H]1CO`, in [16], the AC50 was > 52 µM (inactive).
Take `NCCCCCC(=O)N/N=C/c1ccc2nccnc2c1`: in [8], the half-maximal activity concentration (AC50) is 16.3 µM (active).
Consider `Oc1ccc(C2CNCCc3c2cc(O)c(O)c3Cl)cc1` (stereo not drawn) [FENOLDOPAM MESYLATE], for which the IC50 in assay [17] is > 100 µM (active); in assay [9], > 29.9 µM (inactive); in assay [11], 8.04 µM (active). The AC50 is 1.37 µM (active) in assay [18] and 21.7 µM (active) in assay [8]. Besides, the concentration giving a half-maximal response (EC50) in assay [10] was 2.7 µM (active); in assay [12], > 29.9 µM (inactive).

For the origin of these results see ChEMBL document CHEMBL1201862, “PubChem BioAssay data set” (2004).
